From patent publication US20260262643A1, “HERBICIDAL BENZOXAZINES” (FMC CORPORATION, priority 2022, published 2026)

Columns and labels:
[1] = tested on: barnyardgrass; experiment: Test C preemergence; format: in vivo, Echinochloa crusgalli
In short: (§1)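 Seeds sown in loam soil–sand blend received a directed preemergence soil spray of test chemical in non-phytotoxic solvent with surfactant; postemergence plants (2–10 cm, one- to two-leaf stage) were sprayed with the same formulation. Greenhouse-held 10 days, then visually rated for injury versus untreated controls, 0 (no effect) to 100 (complete control).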

[2] = tested on: blackgrass; experiment: Test C preemergence; format: in vivo, Alopecurus myosuroides
In short: as §1

[3] = tested on: corn; experiment: Test C preemergence; format: in vivo, Zea mays
In short: as §1

[4] = tested on: green foxtail; experiment: Test C preemergence; format: in vivo, Setaria viridis
In short: as §1

[5] = tested on: kochia; experiment: Test C preemergence; format: in vivo, Bassia scoparia
In short: as §1

[6] = tested on: oat, wild; experiment: Test C preemergence; format: in vivo, Avena fatua
In short: as §1

[7] = tested on: pigweed, palmer; experiment: Test C preemergence; format: in vivo, Amaranthus palmeri
In short: as §1

[8] = tested on: ragweed; experiment: Test C preemergence; format: in vivo, Ambrosia artemisiifolia
In short: as §1

[9] = tested on: ryegrass, Italian; experiment: Test C preemergence; format: in vivo, Lolium multiflorum
In short: as §1

[10] = tested on: soybean; experiment: Test C preemergence; format: in vivo, Glycine max
In short: as §1

[11] = tested on: wheat; experiment: Test C preemergence; format: in vivo, Triticum aestivum
In short: as §1

[12] = tested on: barnyardgrass; experiment: Test C postemergence; format: in vivo, Echinochloa crusgalli; conditions: 10 days, 0 to 100 scale (0 no effect, 100 complete control)
In short: as §1

[13] = tested on: blackgrass; experiment: Test C postemergence; format: in vivo, Alopecurus myosuroides; conditions: 10 days, 0 to 100 scale (0 no effect, 100 complete control)
In short: as §1

[14] = tested on: corn; experiment: Test C postemergence; format: in vivo, Zea mays; conditions: 10 days, 0 to 100 scale (0 no effect, 100 complete control)
In short: as §1

[15] = tested on: green foxtail; experiment: Test C postemergence; format: in vivo, Setaria viridis; conditions: 10 days, 0 to 100 scale (0 no effect, 100 complete control)
In short: as §1

[16] = tested on: kochia; experiment: Test C postemergence; format: in vivo, Bassia scoparia; conditions: 10 days, 0 to 100 scale (0 no effect, 100 complete control)
In short: as §1

[17] = tested on: oat, wild; experiment: Test C postemergence; format: in vivo, Avena fatua; conditions: 10 days, 0 to 100 scale (0 no effect, 100 complete control)
In short: as §1

[18] = tested on: pigweed, palmer; experiment: Test C postemergence; format: in vivo, Amaranthus palmeri; conditions: 10 days, 0 to 100 scale (0 no effect, 100 complete control)
In short: as §1

[19] = tested on: ragweed; experiment: Test C postemergence; format: in vivo, Ambrosia artemisiifolia; conditions: 10 days, 0 to 100 scale (0 no effect, 100 complete control)
In short: as §1

[20] = tested on: ryegrass, Italian; experiment: Test C postemergence; format: in vivo, Lolium multiflorum; conditions: 10 days, 0 to 100 scale (0 no effect, 100 complete control)
In short: as §1

[21] = tested on: soybean; experiment: Test C postemergence; format: in vivo, Glycine max; conditions: 10 days, 0 to 100 scale (0 no effect, 100 complete control)
In short: as §1

[22] = tested on: wheat; experiment: Test C postemergence; format: in vivo, Triticum aestivum; conditions: 10 days, 0 to 100 scale (0 no effect, 100 complete control)
In short: as §1

[23] = tested on: galium; experiment: Test C postemergence; format: in vivo, Galium aparine; conditions: 10 days, 0 to 100 scale (0 no effect, 100 complete control)
In short: as §1

[24] = tested on: horseweed; experiment: Test C postemergence; format: in vivo, Erigeron canadensis; conditions: 10 days, 0 to 100 scale (0 no effect, 100 complete control)
In short: as §1

[25] = tested on: barnyardgrass; experiment: Test D flooded paddy test; format: in vivo, Echinochloa crus-galli; conditions: 250 g ai/ha, applied to paddy water, visual rating after 13 to 14 days, scale 0 to 100 (0 no effect, 100 complete control)
In short: (§2)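 Plants at the 2-leaf stage were grown in pots flooded to 3 cm, and compound was applied directly into the paddy water, with depth kept throughout. After 13–14 days in a greenhouse, injury was rated visually against untreated controls on a 0–100 scale (100 = complete control); a dash means not tested.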

[26] = tested on: ducksalad; experiment: Test D flooded paddy test; format: in vivo, Heteranthera limosa; conditions: 250 g ai/ha, applied to paddy water, visual rating after 13 to 14 days, scale 0 to 100 (0 no effect, 100 complete control)
In short: as §2

[27] = tested on: rice; experiment: Test D flooded paddy test; format: in vivo, Oryza sativa; conditions: 250 g ai/ha, applied to paddy water, visual rating after 13 to 14 days, scale 0 to 100 (0 no effect, 100 complete control)
In short: as §2

[28] = tested on: sedge, umbrella; experiment: Test D flooded paddy test; format: in vivo, Cyperus difformis; conditions: 250 g ai/ha, applied to paddy water, visual rating after 13 to 14 days, scale 0 to 100 (0 no effect, 100 complete control)
In short: as §2

[29] = 500 g ai/ha, preemergence, 0 to 100 scale (0 no effect, 100 complete control)
[30] = Preemergence, 125 g ai/ha, 0 to 100 scale, 0 no effect, 100 complete control

SMILES: CC(=O)N(C)c1ncn(-c2cccc(C(=O)N3C[C@H](C)Oc4c(C)cccc43)c2)n1 [Compound 336]
- Barnyardgrass plant response rating [1, 29]: 100
- Plant response rating, Barnyardgrass [1, 30]: 20
- Blackgrass plant response rating [2, 29]: 40
- Plant response rating, Blackgrass [2, 30]: 30
- Corn plant response rating [3, 29]: 20
- Plant response rating, Corn [3, 30]: 0
- Foxtail, Green plant response rating [4, 29]: 100
- Plant response rating, Foxtail, Green [4, 30]: 80
- Kochia plant response rating [5, 29]: 90
- Plant response rating, Kochia [5, 30]: 0
- Oat, Wild plant response rating [6, 29]: 30
- Plant response rating, Oat, Wild [6, 30]: 0
- Pigweed, Palmer plant response rating [7, 29]: 90
- Plant response rating, Pigweed, Palmer [7, 30]: 10
- Ragweed plant response rating [8, 29]: 0
- Plant response rating, Ragweed [8, 30]: 0
- Ryegrass, Italian plant response rating [9, 29]: 90
- Plant response rating, Ryegrass, Italian [9, 30]: 70
- Soybean plant response rating [10, 29]: 30
- Plant response rating, Soybean [10, 30]: 0
- Wheat plant response rating [11, 29]: 40
- Plant response rating, Wheat [11, 30]: 0
- Plant response rating, Barnyardgrass ([12]; 500 g ai/ha, postemergence): 60
- Plant response rating, Barnyardgrass ([12]; Postemergence, 125 g ai/ha): 10
- Plant response rating, Blackgrass ([13]; 500 g ai/ha, postemergence): 90
- Plant response rating, Blackgrass ([13]; Postemergence, 125 g ai/ha): 30
- Plant response rating, Corn ([14]; 500 g ai/ha, postemergence): 60
- Plant response rating, Corn ([14]; Postemergence, 125 g ai/ha): 20
- Plant response rating, Foxtail, Green ([15]; 500 g ai/ha, postemergence): 60
- Plant response rating, Foxtail, Green ([15]; Postemergence, 125 g ai/ha): 20
- Plant response rating, Kochia ([16]; 500 g ai/ha, postemergence): 80
- Plant response rating, Kochia ([16]; Postemergence, 125 g ai/ha): 60
- Plant response rating, Oat, Wild ([17]; 500 g ai/ha, postemergence): 70
- Plant response rating, Oat, Wild ([17]; Postemergence, 125 g ai/ha): 10
- Plant response rating, Pigweed, Palmer ([18]; 500 g ai/ha, postemergence): 70
- Plant response rating, Pigweed, Palmer ([18]; Postemergence, 125 g ai/ha): 20
- Plant response rating, Ragweed ([19]; 500 g ai/ha, postemergence): 10
- Plant response rating, Ragweed ([19]; Postemergence, 125 g ai/ha): 20
- Plant response rating, Ryegrass, Italian ([20]; 500 g ai/ha, postemergence): 80
- Plant response rating, Ryegrass, Italian ([20]; Postemergence, 125 g ai/ha): 50
- Plant response rating, Soybean ([21]; 500 g ai/ha, postemergence): 100
- Plant response rating, Soybean ([21]; Postemergence, 125 g ai/ha): 80
- Plant response rating, Wheat ([22]; 500 g ai/ha, postemergence): 40
- Plant response rating, Wheat ([22]; Postemergence, 125 g ai/ha): 10
- Plant response rating, Galium ([23]; 500 g ai/ha, postemergence): 90
- Plant response rating, Galium ([23]; Postemergence, 125 g ai/ha): 60
- Plant response rating, Horseweed ([24]; 500 g ai/ha, postemergence): 0
- Plant response rating, Horseweed ([24]; Postemergence, 125 g ai/ha): 0
- Plant response rating, Barnyardgrass (Flood) [25]: 0
- Plant response rating, Ducksalad (Flood) [26]: 25
- Plant response rating, Rice (Flood) [27]: 0
- Plant response rating, Sedge, Umbrella (Flood) [28]: 0
